Test results from patent US20250230154A1, “COMPOUND HAVING SHP2 PROTEIN DEGRADING ACTIVITY, AND MEDICAL USES THEREOF” (UBIX THERAPEUTICS, INC., priority 2021, published 2025).

Target: T1, SHP2 protein (Homo sapiens, UniProt Q06124)
T1 sequence (Q06124 1-593): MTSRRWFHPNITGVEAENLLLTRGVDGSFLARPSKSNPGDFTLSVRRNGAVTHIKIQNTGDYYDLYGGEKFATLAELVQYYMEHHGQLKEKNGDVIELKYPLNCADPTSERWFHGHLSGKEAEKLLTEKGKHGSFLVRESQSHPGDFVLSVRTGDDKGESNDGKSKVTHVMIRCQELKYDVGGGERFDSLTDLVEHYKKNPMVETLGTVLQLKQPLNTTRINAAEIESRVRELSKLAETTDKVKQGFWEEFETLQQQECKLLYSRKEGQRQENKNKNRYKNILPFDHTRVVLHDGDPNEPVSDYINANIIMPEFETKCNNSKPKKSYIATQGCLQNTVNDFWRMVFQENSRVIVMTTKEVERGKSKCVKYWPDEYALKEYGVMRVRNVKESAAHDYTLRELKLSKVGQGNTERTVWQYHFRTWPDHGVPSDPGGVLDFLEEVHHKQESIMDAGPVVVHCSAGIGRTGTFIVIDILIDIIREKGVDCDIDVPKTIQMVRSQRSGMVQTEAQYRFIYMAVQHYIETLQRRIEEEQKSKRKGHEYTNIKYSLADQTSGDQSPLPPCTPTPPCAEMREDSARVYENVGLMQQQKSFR
Test: Measurement of SHP2 protein degradation in KYSE-520 cells (western blotting)
Assay type: cell-based
Design: endogenous in cells
Details: 24 hours
Experimental: Experimental Example 1: Measurement of SHP2 Protein Degradation in KYSE-520 Cells
KYSE-520 cells were treated with the synthesized Example compound, and the amount of SHP2 protein present in the cells was measured using western blotting detection. The protocol of the experiment conducted using KYSE-520 cells was as follows:
[Culture] KYSE-520 cells resuspended in RPMI1640 MEDIUM (Hyclone, SH30027.01) containing 5% FBS (Hyclone, SV30207.02) and 1% Penicillin-streptomycin (Welgene, LS 202-02) were seeded at a density of 2.5×10^5/well in a 6-well plate in an amount of 2 ml each and incubated for 2 days.
[Compound treatment] […] After 24 hours, cells were harvested. For the negative control group, DMSO diluted 1/10 to the media (3 mL DMSO+27 mL media) was added.
[Cell Lysis and Protein Quantification] Lysis buffer was prepared as follows: […] of RIPA buffer (Biosesang, RC2038-050-00)+0.5 mM PMSF (SIGMA, P7626)+1× Protease/Phosphatase Inhibitor (Cell signaling, 5872S) per well was added and placed on ice for 30 minutes (vortexing at 0 and 30 minutes, respectively). After sonication process (10 seconds pulse, 30 seconds rest, 5 cycles, 70% amplification), centrifugation (15000 g, 15 min, 4° C.) was performed, and then only the supernatant was taken and transferred to a new microtube. The sample was diluted ¼ with RIPA buffer in a 96-well plate, and mixed with A:B=50:1 of the BCA Protein Assay Kit (iNtRON, 21071). […] each of the mixture was left at 37° C. for 30 minutes, and cooled for 10 minutes. Then, absorbance was measured at 562 nm with the SYNERGY H1 microplate reader from BioTek. After making a sample by quantifying the protein with the measured value, boiling was performed at 70° C. for 10 minutes. At this time, the sample buffer used was a mixture of NuPAGE or Bolt 4× sample buffer (Invitrogen) and each 10× sample reducing agent according to the gel to be used, and RIPA buffer was used for protein dilution.
[Western blotting detection method] The same amount of sample was loaded on NuPAGE or Bolt Bis-tris 4-12% gradient gel and run (200 V, 35 minutes). It was transferred to 0.2 mm NC membrane with Trans-blot Turbo (BIO-RAD) (1.3 A constant, 25 V limit, 15 minutes). Blocking was performed at room temperature for 1 hour with Skim milk or Intercept Blocking Buffer (LI-COR, 927-60001):0.1% TBST=1:1. Anti SHPTP2 Mouse (1:500 in 5% Skim milk/TBST, size: 70 kDa, Santacruz sc-7384) was incubated overnight at 4° C., and Anti GAPDH Rabbit (1:2,000 in 5% BSA/0.2% TBST, size: 37 kDa, CST #2118) was incubated at room temperature for 1 hour 30 minutes or 3 hours. It was washed 3 times for 5 minutes each with 0.2% TBST washing buffer. Secondary antibody Anti-Rabbit IgG (1:5,000 in 5% Skim milk/0.2% TBST, CST), and IRDye® 680RD Goat anti-Rabbit IgG Secondary Antibody (1:10,000 in 5% BSA/0.2% TBST, LI-COR 926-68071) were incubated for 45 minutes on a rocker at room temperature. It was washed 5 times for 5 minutes each with 0.2% TBST washing buffer and detected with LI-COR's Odyssey. At this time, SHPTP2 was detected using SuperSignal West Pico PLUS Chemiluminescent Substrate, and house-keeping genes were also detected.
In the results of Table 4 below, Compounds 1-7, 13-19, and 21-26 are results in KYSE-520 cells, and the others are results in MV-4-11 cells.

| SHP2 degradation (%) 10 nM [%] | SHP2 degradation (%) 100 nM [%] | SHP2 degradation (%) 1000 nM [%] | SMILES |
| --- | --- | --- | --- |
| 4.1 | 60.7 | 90.7 | Cc1ncsc1-c1ccc(CNC(=O)[C@@H]2C[C@@H](O)CN2C(=O)[C@@H](NC(=O)C2(F)CC2)C(C)(C)C)c(OCCCCCCCCN2CCC(C(=O)Nc3cccc(Sc4cnc(N5CCC(C)(CN)CC5)cn4)c3Cl)CC2)c1 [Example 4, N-(3-((5-(4-(aminomethyl)-4-methylpiperidin-1-yl)pyrazin-2-yl)thio)-2-chlorophenyl)-1-(8-(2-(((2S,4R)-1-((S)-2-(1-fluorocyclopropane-1-carboxamido)-3,3-dimethylbutanoyl)-4-hydroxypyrrolidine-2-carboxamido)methyl)-5-(4-methylthiazol-5-yl)phenoxy)octyl)piperidine-4-carboxamide] |
| 40.6 | 83.2 | 95.0 | Cc1ncsc1-c1ccc(CNC(=O)[C@@H]2C[C@@H](O)CN2C(=O)[C@@H](NC(=O)C2(F)CC2)C(C)(C)C)c(OCCCCCC(=O)N2CCC(CCCC(=O)Nc3cccc(Sc4cnc(N5CCC(C)(CN)CC5)cn4)c3Cl)CC2)c1 [Example 26, (2S,4R)—N-(2-((6-(4-(4-((3-((5-(4-(aminomethyl)-4-methylpiperidin-1-yl)pyrazin-2-yl)thio)-2-chlorophenyl)amino)-4-oxobutyl)piperidin-1-yl)-6-oxohexyl)oxy)-4-(4-methylthiazol-5-yl)benzyl)-1-((S)-2-(1-fluorocyclopropane-1-carboxamido)-3,3-dimethylbutanoyl)-4-hydroxypyrrolidine-2-carboxamide] |
| −6.1 | 49.6 | 69.2 | Cc1ncsc1-c1ccc(CNC(=O)[C@@H]2C[C@@H](O)CN2C(=O)[C@@H](NC(=O)C2(F)CC2)C(C)(C)C)c(OCCN2CCC(CCC(=O)Nc3cccc(Sc4cnc(N5CCC(C)(CN)CC5)cn4)c3Cl)CC2)c1 [Example 13, (2S,4R)—N-(2-(2-(4-(3-((3-((5-(4-(aminomethyl)-4-methylpiperidin-1-yl)pyrazin-2-yl)thio)-2-chlorophenyl)amino)-3-oxopropyl)piperidin-1-yl)ethoxy)-4-(4-methylthiazol-5-yl)benzyl)-1-((S)-2-(1-fluorocyclopropane-1-carboxamido)-3,3-dimethylbutanoyl)-4-hydroxypyrrolidine-2-carboxamide] |
| 3.4 | 56.7 | 90.6 | Cc1ncsc1-c1ccc(CNC(=O)[C@@H]2C[C@@H](O)CN2C(=O)[C@@H](NC(=O)C2(F)CC2)C(C)(C)C)c(OCCN2CCC(CC(=O)Nc3cccc(Sc4cnc(N5CCC(C)(CN)CC5)cn4)c3Cl)CC2)c1 [Example 5, (2S,4R)—N-(2-(2-(4-(2-((3-((5-(4-(aminomethyl)-4-methylpiperidin-1-yl)pyrazin-2-yl)thio)-2-chlorophenyl)amino)-2-oxoethyl)piperidin-1-yl)ethoxy)-4-(4-methylthiazol-5-yl)benzyl)-1-((S)-2-(1-fluorocyclopropane-1-carboxamido)-3,3-dimethylbutanoyl)-4-hydroxypyrrolidine-2-carboxamide] |
| −24.3 | 45.1 | 84.0 | Cc1ncsc1-c1ccc(CNC(=O)[C@@H]2C[C@@H](O)CN2C(=O)[C@@H](NC(=O)C2(F)CC2)C(C)(C)C)c(OCCN2CCC(CCCC(=O)Nc3cccc(Sc4cnc(N5CCC(C)(CN)CC5)cn4)c3Cl)CC2)c1 [Example 16, (2S,4R)—N-(2-(2-(4-(4-((3-((5-(4-(aminomethyl)-4-methylpiperidin-1-yl)pyrazin-2-yl)thio)-2-chlorophenyl)amino)-4-oxobutyl)piperidin-1-yl)ethoxy)-4-(4-methylthiazol-5-yl)benzyl)-1-((S)-2-(1-fluorocyclopropane-1-carboxamido)-3,3-dimethylbutanoyl)-4-hydroxypyrrolidine-2-carboxamide] |

| SMILES | SHP2 degradation (%) 10 nM [%] | SHP2 degradation (%) 100 nM [%] | SHP2 degradation (%) 1000 nM [%] |
| --- | --- | --- | --- |
| Cc1ncsc1-c1ccc(CNC(=O)[C@@H]2C[C@@H](O)CN2C(=O)[C@@H](NC(=O)C2(F)CC2)C(C)(C)C)c(OCCCC(=O)N2CCC(CC(=O)Nc3cccc(Sc4cnc(N5CCC(C)(CN)CC5)cn4)c3Cl)CC2)c1 [Example 23, (2S,4R)—N-(2-(4-(4-(2-((3-((5-(4-(aminomethyl)-4-methylpiperidin-1-yl)pyrazin-2-yl)thio)-2-chlorophenyl)amino)-2-oxoethyl)piperidin-1-yl)-4-oxobutoxy)-4-(4-methylthiazol-5-yl)benzyl)-1-((S)-2-(1-fluorocyclopropane-1-carboxamido)-3,3-dimethylbutanoyl)-4-hydroxypyrrolidine-2-carboxamide] | 8.4 | 44.3 | 64.2 |
| Cc1ncsc1-c1ccc(CNC(=O)[C@@H]2C[C@@H](O)CN2C(=O)[C@@H](NC(=O)C2(F)CC2)C(C)(C)C)c(OCCCCN2CCC(CC(=O)Nc3cccc(Sc4cnc(N5CCC(C)(CN)CC5)cn4)c3Cl)CC2)c1 [Example 7, (2S,4R)—N-(2-(4-(4-(2-((3-((5-(4-(aminomethyl)-4-methylpiperidin-1-yl)pyrazin-2-yl)thio)-2-chlorophenyl)amino)-2-oxoethyl)piperidin-1-yl)butoxy)-4-(4-methylthiazol-5-yl)benzyl)-1-((S)-2-(1-fluorocyclopropane-1-carboxamido)-3,3-dimethylbutanoyl)-4-hydroxypyrrolidine-2-carboxamide] | 25.4 | 75.2 | 93.8 |
| Cc1ncsc1-c1ccc(CNC(=O)[C@@H]2C[C@@H](O)CN2C(=O)[C@@H](NC(=O)C2(F)CC2)C(C)(C)C)c(OCCCCN2CCC(CCCC(=O)Nc3cccc(Sc4cnc(N5CCC(C)(CN)CC5)cn4)c3Cl)CC2)c1 [Example 17, (2S,4R)—N-(2-(4-(4-(4-((3-((5-(4-(aminomethyl)-4-methylpiperidin-1-yl)pyrazin-2-yl)thio)-2-chlorophenyl)amino)-4-oxobutyl)piperidin-1-yl)butoxy)-4-(4-methylthiazol-5-yl)benzyl)-1-((S)-2-(1-fluorocyclopropane-1-carboxamido)-3,3-dimethylbutanoyl)-4-hydroxypyrrolidine-2-carboxamide] |  | 71.8 | 94.9 |
